Experimental findings from ChEMBL document CHEMBL1137068, “Design, synthesis and evaluation of bicyclic benzamides as novel 5-HT1F receptor agonists” (Bioorg Med Chem Lett, 2004) are described below.

A value given as a limit tells only on which side of the number the result lay.

Test [1] deals with T1, 5-hydroxytryptamine receptor 1D (Homo sapiens, UniProt P28221). Nature of the test: In vitro binding affinity for human 5-hydroxytryptamine 1D receptor.
Test [2] addresses T2, 5-hydroxytryptamine receptor 1F (Homo sapiens, UniProt P30939).
T2 sequence (P30939 whole entry): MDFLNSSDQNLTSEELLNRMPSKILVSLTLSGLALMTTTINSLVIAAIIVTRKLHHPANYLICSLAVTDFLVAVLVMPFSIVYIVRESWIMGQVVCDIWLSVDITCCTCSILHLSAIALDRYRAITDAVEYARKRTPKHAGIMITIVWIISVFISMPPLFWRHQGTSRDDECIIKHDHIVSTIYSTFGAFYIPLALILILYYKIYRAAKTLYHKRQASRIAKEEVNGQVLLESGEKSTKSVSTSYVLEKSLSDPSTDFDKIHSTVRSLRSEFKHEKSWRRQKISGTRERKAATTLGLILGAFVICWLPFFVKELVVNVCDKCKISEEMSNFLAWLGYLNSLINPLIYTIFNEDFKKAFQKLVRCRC
Nature of the test: In vitro binding affinity for human 5-hydroxytryptamine 1F receptor.

Test [3] addresses T3, 5-hydroxytryptamine receptor 1B (Homo sapiens, UniProt P28222). Nature of the test: Inhibitory activity against human 5-hydroxytryptamine 1B receptor. Particulars: concentration not given here.
Test [4] concerns the target T4, 5-hydroxytryptamine receptor 1A (Homo sapiens, UniProt P08908).
T4 sequence (P08908 whole entry): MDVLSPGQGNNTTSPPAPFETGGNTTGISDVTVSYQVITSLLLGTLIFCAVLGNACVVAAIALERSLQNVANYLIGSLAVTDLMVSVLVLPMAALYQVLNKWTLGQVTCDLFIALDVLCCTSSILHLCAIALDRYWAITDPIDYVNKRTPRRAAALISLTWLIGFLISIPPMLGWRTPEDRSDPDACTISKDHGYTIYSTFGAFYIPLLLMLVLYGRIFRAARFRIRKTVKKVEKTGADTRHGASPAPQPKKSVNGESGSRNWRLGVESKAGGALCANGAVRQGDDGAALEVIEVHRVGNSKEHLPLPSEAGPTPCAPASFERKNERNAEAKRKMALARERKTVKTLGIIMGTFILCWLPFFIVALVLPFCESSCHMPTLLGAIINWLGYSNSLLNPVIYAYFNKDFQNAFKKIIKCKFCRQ
Nature of the test: In vitro binding affinity for human 5-hydroxytryptamine 1A receptor.

Test [5] deals with T3, 5-hydroxytryptamine receptor 1B. Nature of the test: In vitro binding affinity for human 5-hydroxytryptamine 1B receptor.
The species entered for test [6] is Homo sapiens. Nature of the test: Ratio of binding affinity for 5-hydroxytryptamine 1D receptor to that of 5-hydroxytryptamine 1F receptor.
The species entered for test [7] is Homo sapiens. Nature of the test: Ratio of binding affinity for 5-hydroxytryptamine 1A receptor to that of 5-hydroxytryptamine 1F receptor.
In test [8] the target is T2, 5-hydroxytryptamine receptor 1F. Nature of the test: Stimulation of [35S]GTP-gamma-S, binding to cloned human 5-hydroxytryptamine 1F receptor expressed in Mouse LM(tk-) cells. The test is classed as functional, cell-based. A general note: GTPγS resists hydrolysis and so accumulates on activated G proteins.
In test [9] the target is T5, 5-hydroxytryptamine receptor 1F (Homo sapiens) (UniProt P30939).
T5 sequence (whole entry): T2 sequence (P30939 whole entry)
Nature of the test: Maximum stimulation of [35S]GTP-gamma-S, binding to human 5-hydroxytryptamine 1F receptor expressed in Mouse LM(tk-) cells relative to maximum effect of 5-HT. The test is classed as functional, cell-based.

For test [10], the target named is T1, 5-hydroxytryptamine receptor 1D. Nature of the test: Inhibitory activity against human 5-hydroxytryptamine 1D receptor. Particulars: concentration not given here.
For test [11] the target is unchanged. Nature of the test: Inhibitory activity against 5-hydroxytryptamine 1D receptor at 10 uM.
Test [12] deals with T3, 5-hydroxytryptamine receptor 1B. Nature of the test: Inhibitory activity against 5-hydroxytryptamine 1B receptor at 10 uM.

T3 sequence (P28222 whole entry): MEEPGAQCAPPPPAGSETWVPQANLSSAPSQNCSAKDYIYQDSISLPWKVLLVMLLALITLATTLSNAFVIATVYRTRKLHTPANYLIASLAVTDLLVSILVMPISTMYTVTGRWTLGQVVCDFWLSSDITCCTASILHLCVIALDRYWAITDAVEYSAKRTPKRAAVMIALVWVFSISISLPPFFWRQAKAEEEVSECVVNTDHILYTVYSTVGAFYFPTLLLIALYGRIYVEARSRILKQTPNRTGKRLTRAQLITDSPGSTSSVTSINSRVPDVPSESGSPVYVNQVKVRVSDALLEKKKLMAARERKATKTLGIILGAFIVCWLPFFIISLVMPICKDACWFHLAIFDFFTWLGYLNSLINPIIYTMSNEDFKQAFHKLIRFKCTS
T1 sequence (P28221 whole entry): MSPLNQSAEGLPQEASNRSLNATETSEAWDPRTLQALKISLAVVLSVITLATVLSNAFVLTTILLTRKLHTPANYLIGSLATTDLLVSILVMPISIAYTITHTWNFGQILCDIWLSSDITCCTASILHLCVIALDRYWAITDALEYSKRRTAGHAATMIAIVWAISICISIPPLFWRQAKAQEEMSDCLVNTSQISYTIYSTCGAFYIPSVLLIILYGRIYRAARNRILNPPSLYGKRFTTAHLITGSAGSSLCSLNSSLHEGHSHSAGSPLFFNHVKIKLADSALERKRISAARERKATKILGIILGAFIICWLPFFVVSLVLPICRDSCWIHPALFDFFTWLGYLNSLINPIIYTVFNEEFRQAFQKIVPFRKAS

The term Ki denotes a measure of affinity in units of concentration, obtained from inhibition or displacement. A low value points to higher affinity. In general, inhibition refers to the relative decrease from the control value, in per cent. High values mean a strong effect, low ones a weak effect. For the compound `CN1CCC(N2CCOc3ccc(NC(=O)c4ccc(F)cc4)cc32)CC1`, the Ki in test [1] came to 2300 nM; in test [2], 520 nM; in test [4], 860 nM. This compound showed an inhibition in test [3] below 50%.
`CN1CCC(c2n[nH]c3ccc(NC(=O)c4ccc(F)cc4)cc23)CC1`: the inhibition constant (Ki) in test [1] was 3100 nM; in [2] it was 3.9 nM; in test [5], 2300 nM; in [4], 870 nM.
`CN1CCC(C2CNc3ccc(NC(=O)c4ccc(F)cc4)cc32)CC1` (stereo in doubt; 3) [listing 1 of 2 here] had an inhibition in test [3] below 50%. For the same compound, the Selectivity ratio in the test filed under Homo sapiens [6] is 250; in the test listed under Homo sapiens [7], 30.
For orientation: EC50 means the midpoint of the concentration-response curve. A higher EC50 goes with lower potency in that assay. One may read the Emax as the maximal effect, on the per cent scale that the assay sets. In test [2], `CN1CCC(c2noc3ccc(NC(=O)c4ccc(F)cc4F)cc23)CC1` returned an inhibitory constant (Ki) of 12 nM. The compound also returned a 50% effective concentration (EC50) in test [8] of 470 nM. In addition, in test [9], the Emax was 73%. Further, the Selectivity ratio in the test listed under Homo sapiens [7] is 10.
For `CN1CCC(n2ncc3ccc(NC(=O)c4ccc(F)cc4)cc32)CC1`, the results for the Ki in test [2], in test [5] and in test [4] were 4.1 nM, 2400 nM and 310 nM, respectively. The compound also showed an inhibition in test [10] below 50%.
For `CN1CCC(c2noc3ccc(NC(=O)c4ccc(F)cc4Cl)cc23)CC1`, the affinity in test [2] corresponds to a Ki of 3.6 nM. Moreover, a half-maximal effect in test [8] (EC50) was put at 140 nM. This compound also returned an Emax in test [9] of 71%. In the test filed under Homo sapiens [7], the Selectivity ratio came out at 30.
On to `CN1CCC(C2CNc3ccc(NC(=O)c4ccc(F)cc4)cc32)CC1` (stereo in doubt; form 2) [listing 1 of 2 here], for which the Ki in [2] stood at 9.6 nM; in test [4] it was 250 nM.
On to `CN1CCC(n2ccc3ccc(NC(=O)c4ccc(F)cc4)cc32)CC1`, for which the Ki stood at 140 nM in test [1], 2.2 nM in test [2], 260 nM in test [5] and 11 nM in test [4].
In the same order, the values of `CN1CCC(N2CCc3ccc(NC(=O)c4ccc(F)cc4)cc32)CC1` are 210 nM, 4.8 nM, 440 nM and 12 nM.
`CN1CCC(c2noc3ccc(NC(=O)c4ccc(F)cc4)cc23)CC1`: the inhibition constant Ki amounted to 17 nM in test [2] and 160 nM in test [4]. The inhibition in [11] and in test [12] was below 50% throughout. In addition, the Selectivity ratio in the test filed under Homo sapiens [7] was found to be 10.
`CN1CCC(C2CNc3ccc(NC(=O)c4ccc(F)cc4)cc32)CC1` (stereo in doubt; form 2) [listing 2 of 2 here]: in test [3], the inhibition was below 50%.
On to `CN1CCC(C2CNc3ccc(NC(=O)c4ccc(F)cc4)cc32)CC1` (stereo in doubt; 3) [listing 2 of 2 here], for which the inhibitory constant (Ki) in [1] was 2300 nM; in test [2], 9 nM; in [4], 240 nM.
`CN1CCC(C2CNc3ccc(NC(=O)c4ccc(F)cc4)cc32)CC1` (stereo in doubt; form 1) [listing 1 of 2 here] returned an inhibition in test [3] below 50%.
For `CN1CCC(C2CNc3ccc(NC(=O)c4ccc(F)cc4)cc32)CC1` (stereo in doubt; form 1) [listing 2 of 2 here], the results for the inhibition constant (Ki) in test [2] and in test [4] were 8.6 nM and 250 nM, respectively.
Turning to `CN1CCC(N2CNc3ccc(NC(=O)c4c(F)cc(F)cc4F)cc32)CC1`, the inhibition constant (Ki) in test [2] worked out at 17 nM. In test [8], this compound returned an EC50 of 50 nM. In test [9], this compound registered a maximal response (Emax) of 95%. The Selectivity ratio in the test listed under Homo sapiens [6] was found to be 120; in the test filed under Homo sapiens [7], 50.
Compound `CN1CCC(N2CNc3ccc(NC(=O)c4ccc(F)cc4Cl)cc32)CC1` displayed an inhibition constant (Ki) in test [2] of 13 nM. The same compound had an EC50 in test [8] of 63 nM. The Emax in test [9] was determined as 98%. Further, the Selectivity ratio in the test filed under Homo sapiens [6] turned out to be 80; in the test filed under Homo sapiens [7] it was 70.
